The values below come from the NIST ThermoML archive (doi:10.1016/j.jct.2009.07.011).

A short description of data set [1]: molar enthalpy of vaporization or sublimation. Conditions: 298.15 K; Crystal; Static calorimetry.
The conditions of data set [2]: 298.15 K, Static calorimetry; for molar enthalpy of sublimation: Crystal.

± gives the expanded uncertainty stated by the source.

With `Oc1cccc(F)c1F` [2,3-Difluorophenol], the molar enthalpy in data set [1] came to 16.3 ± 0.717 kcal/mol.

As for `Oc1ccc(F)cc1F` [2,4-Difluorophenol], the “molar enthalpy of vaporization” value in data set [2] (Liquid) came out at 14.1 ± 0.43 kcal/mol.

As for `Oc1cc(F)ccc1F` [2,5-Difluorophenol], in data set [1], the molar enthalpy worked out at 16.3 ± 0.669 kcal/mol.

With `Oc1c(F)cccc1F` [2,6-difluorophenol], the molar enthalpy in data set [1] was found to be 18.6 ± 0.908 kcal/mol.

With `Oc1ccc(F)c(F)c1` [3,4-Difluorophenol], the “molar enthalpy of sublimation” value in data set [2] amounted to 17.4 ± 0.717 kcal/mol.

As to `Oc1cc(F)cc(F)c1` [3,5-Difluorophenol], the “molar enthalpy of sublimation” value in data set [2] stood at 17.4 ± 1.05 kcal/mol.
